Data as given in patent publication US20080267932A1, “Lactobacillus Rhamnosus with Body-Fat Reducing Activity and the Foods Containing Them” (priority 2004, published 2008).

Legend:
[1] = tested on: Lactobacillus rhamnosus Strain PL60; assay: Antibiotic resistance (diameter of growth inhibition); format: cell-based; settings: antibiotic against Lactobacillus rhamnosus Strain PL60
CLA production from LA = settings: reported strains, for comparison; cited from earlier work
overweight people = settings: cited from earlier work

Compound: CC1(C)S[C@@H]2[C@H](NC(=O)C(C(=O)O)c3ccccc3)C(=O)N2[C@H]1C(=O)O (stereo partly shown) [Carbenicillin]
- Diameter(mm) of growth inhibition [1]: 25 mm

Compound: Lactobacillus reuteri
- yield of t10c12 CLA (CLA production from LA): 30 ppm

Compound: CC1(C)S[C@@H]2[C@H](NC(=O)[C@H](N)c3ccccc3)C(=O)N2[C@H]1C(=O)O [Ampicillin]
- Diameter(mm) of growth inhibition [1]: 21 mm

Compound: CCN1CCN(C(=O)N[C@@H](C(=O)N[C@@H]2C(=O)N3C(C(=O)O)=C(CSc4nnnn4C)CS[C@H]23)c2ccc(O)cc2)C(=O)C1=O [Cefoperazone]
- Diameter(mm) of growth inhibition [1]: 22 mm

Compound: [H]/N=C(/N)N[C@H]1[C@H](O)[C@@H](O)[C@H](O[C@@H]2O[C@@H](C)[C@](O)(C=O)[C@H]2O[C@@H]2O[C@@H](CO)[C@H](O)[C@@H](O)[C@@H]2NC)[C@@H](N/C(N)=N\[H])[C@@H]1O [Streptomycin]
- Diameter(mm) of growth inhibition [1]: 11 mm

Compound: CO[C@H]1/C=C/O[C@@]2(C)Oc3c(C)c(O)c4c(O)c(c(/C=N/N5CCN(C)CC5)c(O)c4c3C2=O)NC(=O)/C(C)=C\C=C\[C@H](C)[C@H](O)[C@@H](C)[C@@H](O)[C@@H](C)[C@H](OC(C)=O)[C@@H]1C [Rifampin]
- Diameter(mm) of growth inhibition [1]: 24 mm

Compound: CCC[C@@H]1C[C@@H](C(=O)N[C@@H]([C@H]2O[C@H](SC)[C@H](O)[C@@H](O)[C@H]2O)[C@H](C)Cl)N(C)C1 [Clindamycin]
- Diameter(mm) of growth inhibition [1]: 26 mm

Compound: CCN1CCN(C(=O)N[C@@H](C(=O)N[C@@H]2C(=O)N3[C@@H]2SC(C)(C)[C@@H]3C(=O)O)c2ccccc2)C(=O)C1=O [Piperacilin]
- Diameter(mm) of growth inhibition [1]: 30 mm

Compound: Trimethpprime/sulfamethoxasole
- Diameter(mm) of growth inhibition [1]: 6 mm

Compound: Penicillin
- Diameter(mm) of growth inhibition [1]: 25 mm

Compound: CC(=O)OCC1=C(C(=O)O)N2C(=O)[C@@H](NC(=O)Cc3cccs3)[C@H]2SC1 [Cephalothin]
- Diameter(mm) of growth inhibition [1]: 20 mm

Compound: conjugated linoleic acid [CLA]
- weight loss (overweight people; 180 overweight people, administered for one year): 4-10%
- side effects (overweight people; in vivo): without side effects

Compound: CC[C@H]1OC(=O)[C@H](C)[C@@H](O[C@H]2C[C@@](C)(OC)[C@@H](O)[C@H](C)O2)[C@H](C)[C@@H](O[C@@H]2O[C@H](C)C[C@H](N(C)C)[C@H]2O)[C@](C)(O)C[C@@H](C)C(=O)[C@H](C)[C@@H](O)[C@]1(C)O [Erythromycin]
- Diameter(mm) of growth inhibition [1]: 28 mm

Compound: CN[C@H](CC(C)C)C(=O)N[C@H]1C(=O)N[C@@H](CC(N)=O)C(=O)N[C@H]2C(=O)N[C@H]3C(=O)N[C@H](C(=O)N[C@H](C(=O)O)c4cc(O)cc(O)c4-c4cc3ccc4O)[C@H](O)c3ccc(c(Cl)c3)Oc3cc2cc(c3O[C@@H]2O[C@H](CO)[C@@H](O)[C@H](O)[C@H]2O[C@H]2C[C@](C)(N)[C@H](O)[C@H](C)O2)Oc2ccc(cc2Cl)[C@H]1O [Vancomycin]
- Diameter(mm) of growth inhibition [1]: 6 mm

Compound: Gentamicin
- Diameter(mm) of growth inhibition [1]: 10 mm

Compound: Cc1onc(-c2ccccc2)c1C(=O)N[C@@H]1C(=O)N2[C@@H]1SC(C)(C)[C@@H]2C(=O)O [Oxacillin]
- Diameter(mm) of growth inhibition [1]: 8 mm

Compound: CN(C)[C@@H]1C(O)=C(C(N)=O)C(=O)[C@@]2(O)C(O)=C3C(=O)c4c(O)cccc4[C@@](C)(O)[C@H]3C[C@@H]12 [Tetracycline]
- Diameter(mm) of growth inhibition [1]: 29 mm

Compound: O=C(N[C@H](CO)[C@H](O)c1ccc([N+](=O)[O-])cc1)C(Cl)Cl [Chloramphenicol]
- Diameter(mm) of growth inhibition [1]: 24 mm
